Assay results reported in the NIST ThermoML archive (doi:10.1021/je800193a).

Assay: excess molar enthalpy (molar enthalpy of mixing); xn = mol fraction of the nth substance listed
Settings: 101.3 kPa, Liquid, Flow calorimetry

CC(=O)c1ccccc1 [acetophenone] + C1CCCCC1
excess molar enthalpy [kcal/mol]
Settings | 298.2 K | 313.2 K | 328.2 K | 338.2 K | 348.2 K
x1 = 0.1004 | 0.18 | 0.19 | 0.193 | 0.195 | 0.196
x1 = 0.1999 | 0.264 | 0.285 | 0.295 | 0.302 | 0.304
x1 = 0.2999 | 0.305 | 0.336 | 0.353 | 0.362 | 0.364
x1 = 0.3499 | 0.317 | 0.35 | 0.368 | 0.377 | 0.379
x1 = 0.4002 | 0.323 | 0.356 | 0.374 | 0.385 | 0.388
x1 = 0.4497 | 0.323 | 0.357 | 0.375 | 0.386 | 0.387
x1 = 0.4996 | 0.32 | 0.352 | 0.37 | 0.378 | 0.382
x1 = 0.5498 | 0.312 | 0.343 | 0.359 | 0.367 | 0.371
x1 = 0.6005 | 0.299 | 0.327 | 0.341 | 0.349 | 0.353
x1 = 0.6503 | 0.282 | 0.307 | 0.319 | 0.326 | 0.329
x1 = 0.7004 | 0.261 | 0.28 | 0.289 | 0.296 | 0.299
x1 = 0.8005 | 0.2 | 0.209 | 0.213 | 0.218 | 0.221
x1 = 0.8995 | 0.114 | 0.117 | 0.118 | 0.121 | 0.122

CC(=O)c1ccccc1 [acetophenone] + CC(C)CO
excess molar enthalpy [kcal/mol]
Settings | 298.2 K | 313.2 K | 328.2 K | 338.2 K | 348.2 K
x1 = 0.1005 | 0.166 | 0.192 | 0.219 | 0.223 | 0.225
x1 = 0.201 | 0.263 | 0.312 | 0.356 | 0.367 | 0.369
x1 = 0.301 | 0.327 | 0.39 | 0.449 | 0.46 | 0.462
x1 = 0.3512 | 0.346 | 0.414 | 0.476 | 0.488 | 0.491
x1 = 0.4014 | 0.361 | 0.432 | 0.494 | 0.507 | 0.509
x1 = 0.4516 | 0.371 | 0.443 | 0.504 | 0.516 | 0.519
x1 = 0.5017 | 0.375 | 0.446 | 0.505 | 0.516 | 0.52
x1 = 0.5518 | 0.373 | 0.443 | 0.498 | 0.508 | 0.51
x1 = 0.6016 | 0.366 | 0.432 | 0.482 | 0.489 | 0.492
x1 = 0.6513 | 0.354 | 0.415 | 0.456 | 0.463 | 0.467
x1 = 0.7008 | 0.335 | 0.389 | 0.423 | 0.426 | 0.428
x1 = 0.8016 | 0.271 | 0.305 | 0.324 | 0.325 | 0.329
x1 = 0.901 | 0.164 | 0.177 | 0.183 | 0.185 | 0.187

CC(=O)c1ccccc1 [acetophenone] + CCCCCC
excess molar enthalpy [kcal/mol]
Settings | 298.2 K | 313.2 K | 328.2 K
x1 = 0.0997 | 0.169 | 0.173 | 0.175
x1 = 0.2 | 0.263 | 0.277 | 0.285
x1 = 0.2994 | 0.306 | 0.329 | 0.342
x1 = 0.3503 | 0.317 | 0.343 | 0.357
x1 = 0.4006 | 0.321 | 0.349 | 0.365
x1 = 0.4503 | 0.321 | 0.35 | 0.367
x1 = 0.4995 | 0.316 | 0.346 | 0.363
x1 = 0.5494 | 0.308 | 0.336 | 0.353
x1 = 0.5999 | 0.295 | 0.319 | 0.337
x1 = 0.6499 | 0.278 | 0.293 | 0.313
x1 = 0.7005 | 0.257 | 0.265 | 0.277
x1 = 0.8 | 0.2 | 0.203 | 0.207
x1 = 0.8995 | 0.113 | 0.115 | 0.117

CC(=O)c1ccccc1 [acetophenone] + CCCCCCC
excess molar enthalpy [kcal/mol]
Settings | 298.2 K | 313.2 K | 328.2 K | 338.2 K | 348.2 K
x1 = 0.0999 | 0.173 | 0.177 | 0.183 | 0.184 | 0.184
x1 = 0.2002 | 0.271 | 0.285 | 0.298 | 0.301 | 0.302
x1 = 0.3005 | 0.313 | 0.341 | 0.361 | 0.369 | 0.369
x1 = 0.3498 | 0.323 | 0.354 | 0.378 | 0.388 | 0.389
x1 = 0.4007 | 0.326 | 0.362 | 0.388 | 0.398 | 0.4
x1 = 0.4504 | 0.327 | 0.362 | 0.391 | 0.402 | 0.404
x1 = 0.5003 | 0.322 | 0.358 | 0.387 | 0.399 | 0.401
x1 = 0.5504 | 0.313 | 0.348 | 0.378 | 0.39 | 0.39
x1 = 0.6006 | 0.301 | 0.334 | 0.362 | 0.373 | 0.374
x1 = 0.6496 | 0.285 | 0.316 | 0.342 | 0.352 | 0.354
x1 = 0.6998 | 0.264 | 0.291 | 0.315 | 0.323 | 0.326
x1 = 0.8001 | 0.208 | 0.224 | 0.241 | 0.245 | 0.246
x1 = 0.8999 | 0.121 | 0.125 | 0.135 | 0.136 | 0.138

CC(=O)c1ccccc1 [acetophenone] + CCCCCO
excess molar enthalpy [kcal/mol]
Settings | 298.2 K | 313.2 K | 328.2 K | 338.2 K | 348.2 K
x1 = 0.1003 | 0.151 | 0.174 | 0.186 | 0.19 | 0.192
x1 = 0.1998 | 0.24 | 0.283 | 0.311 | 0.324 | 0.328
x1 = 0.2998 | 0.298 | 0.356 | 0.394 | 0.412 | 0.417
x1 = 0.3497 | 0.316 | 0.378 | 0.421 | 0.44 | 0.447
x1 = 0.4001 | 0.33 | 0.396 | 0.441 | 0.461 | 0.468
x1 = 0.4496 | 0.338 | 0.407 | 0.453 | 0.473 | 0.48
x1 = 0.4994 | 0.343 | 0.411 | 0.457 | 0.477 | 0.484
x1 = 0.5497 | 0.342 | 0.41 | 0.453 | 0.473 | 0.478
x1 = 0.6004 | 0.336 | 0.402 | 0.442 | 0.459 | 0.464
x1 = 0.6501 | 0.325 | 0.386 | 0.422 | 0.438 | 0.441
x1 = 0.7003 | 0.307 | 0.363 | 0.393 | 0.408 | 0.41
x1 = 0.8004 | 0.252 | 0.291 | 0.306 | 0.315 | 0.318
x1 = 0.8995 | 0.156 | 0.174 | 0.177 | 0.182 | 0.184

CC(=O)c1ccccc1 [acetophenone] + CCCCO
excess molar enthalpy [kcal/mol]
Settings | 298.2 K | 313.2 K | 328.2 K | 338.2 K | 348.2 K
x1 = 0.0996 | 0.149 | 0.172 | 0.187 | 0.193 | 0.197
x1 = 0.2005 | 0.241 | 0.283 | 0.314 | 0.326 | 0.335
x1 = 0.3001 | 0.298 | 0.357 | 0.394 | 0.412 | 0.423
x1 = 0.3501 | 0.317 | 0.379 | 0.422 | 0.44 | 0.452
x1 = 0.4002 | 0.331 | 0.396 | 0.441 | 0.46 | 0.472
x1 = 0.4504 | 0.34 | 0.406 | 0.452 | 0.471 | 0.483
x1 = 0.5005 | 0.344 | 0.41 | 0.456 | 0.473 | 0.485
x1 = 0.5506 | 0.343 | 0.407 | 0.452 | 0.469 | 0.479
x1 = 0.6006 | 0.337 | 0.399 | 0.44 | 0.455 | 0.463
x1 = 0.6504 | 0.326 | 0.382 | 0.419 | 0.432 | 0.44
x1 = 0.7001 | 0.309 | 0.358 | 0.391 | 0.4 | 0.407
x1 = 0.8 | 0.252 | 0.285 | 0.305 | 0.311 | 0.316
x1 = 0.9001 | 0.154 | 0.17 | 0.176 | 0.18 | 0.184

CC(=O)c1ccccc1 [acetophenone] + CCOC(C)=O
excess molar enthalpy [kcal/mol]
Settings | 298.2 K | 313.2 K | 328.2 K
x1 = 0.1 | -0.00292 | -0.00284 | -0.0028
x1 = 0.2004 | -0.00509 | -0.00495 | -0.0049
x1 = 0.2999 | -0.0066 | -0.00636 | -0.00626
x1 = 0.3501 | -0.00707 | -0.00679 | -0.00674
x1 = 0.4002 | -0.00739 | -0.00703 | -0.00693
x1 = 0.4503 | -0.00755 | -0.00715 | -0.00698
x1 = 0.5002 | -0.00755 | -0.0071 | -0.00688
x1 = 0.5997 | -0.00717 | -0.00667 | -0.00638
x1 = 0.7005 | -0.00629 | -0.00574 | -0.0054
x1 = 0.8004 | -0.00483 | -0.0043 | -0.00392
x1 = 0.9003 | -0.00246 | -0.00234 | -0.00196

CC(=O)c1ccccc1 [acetophenone] + O
excess molar enthalpy [kcal/mol]
Settings | 298.2 K | 313.2 K | 328.2 K | 338.2 K | 348.2 K
x1 = 0.1002 | 0.0169 | 0.0217 | 0.0313 | 0.0342 | 0.0399
x1 = 0.1997 | 0.033 | 0.0424 | 0.0592 | 0.0608 | 0.0772
x1 = 0.3001 | 0.0492 | 0.0636 | 0.0876 | 0.095 | 0.115
x1 = 0.3991 | 0.0652 | 0.0846 | 0.116 | 0.124 | 0.153
x1 = 0.5003 | 0.0816 | 0.106 | 0.145 | 0.156 | 0.192
x1 = 0.5991 | 0.0975 | 0.127 | 0.173 | 0.188 | 0.23
x1 = 0.6986 | 0.113 | 0.148 | 0.201 | 0.221 | 0.269
x1 = 0.7987 | 0.129 | 0.168 | 0.229 | 0.253 | 0.308
x1 = 0.8515 | 0.138 | 0.175 | 0.24 | 0.245 | 0.274
x1 = 0.8967 | 0.141 | 0.16 | 0.189 | 0.192 | 0.204
x1 = 0.9534 | 0.0718 | 0.0793 | 0.0926 | 0.0937 | 0.1
